# Results published in patent US20210188843A1, “QUINOLINE COMPOUNDS AND THEIR PREPARATION AND USE AS ANTIMALARIAL AGENTS” (The United States of America,as represented by the …, priority 2018, published 2021).
# Tests used:
# [1] = test system: Asexual parasites of P. falciparum strain 3D7; experiment: In vitro drug activity on asexual parasites (SYBR Green assay); format: cell-based; conditions: Plasmodium falciparum; Table 1; P. falciparum 3D7 asexual stage, 72 h; read-out: Asexual EC50
# Procedure, shortened: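 Growth was measured by SYBR Green I fluorescence (excitation 490 nm, emission 520 nm) after freeze-thaw lysis and 30 min staining at room temperature. Parasites (0.5% parasitemia, 2% hematocrit) had been incubated 72 h with compound, DMSO below 0.5%. Conditions were run in duplicate with no-drug and RBC-alone controls.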
# Solubility pH 7.4 = format: physicochemical; conditions: aqueous buffer, Table 1
# [2] = Microsomal stability (rat); format: in vitro ADME; conditions: rat microsomes, Table 1, read-out: Microsomal Stability (rat) T1/2
# PAMPA permeability = format: in vitro ADME; conditions: Table 1
EC50 [1] [nM],solubility (Solubility pH 7.4) [µg/mL],half-life [2] [min],Papp (PAMPA permeability) [×10⁻⁶ cm/s],Structure (SMILES)
374,> 50,> 30,776,"Cc1nc(N2CCN(C)CC2)c(C#N)cc1-n1c(=N)n(C)c2cnc3ccc(-c4cccc(F)c4)cc3c21 [Compound 143, 5-(8-(3-fluorophenyl)-2-imino-3-methyl-2,3-dihydro-1H-imidazo[4,5-c]quinolin-1-yl)-6-methyl-2-(4-methylpiperazin-1-yl)nicotinonitrile]"
142,16.7,> 30,1140,"Cc1ccc(-c2ccc3ncc4c(c3c2)n(-c2cc(C#N)c(N3CCOCC3)cc2C)c(=N)n4C)cc1 [Compound 145, 5-(2-imino-3-methyl-8-(p-tolyl)-2,3-dihydro-1H-imidazo[4,5-c]quinolin-1-yl)-4-methyl-2-morpholinobenzonitrile]"
28.4,4.3,24.4,656,"COC(=O)/N=c1\n(C)c2cnc3ccc(-c4ccc(C)cc4)cc3c2n1-c1cc(C#N)c(N2CCN(C)CC2)cc1C [Compound 147, Methyl (E)-(1-(5-cyano-2-methyl-4-(4-methylpiperazin-1-yl)phenyl)-3-methyl-8-(p-tolyl)-1,3-dihydro-2H-imidazo[4,5-c]quinolin-2-ylidene)carbamate]"
8980,< 1,> 30,916,"Cc1ccc(C#N)cc1-n1c(=N)n(C)c2cnc3ccc(C#Cc4ccc(Cl)cc4)cc3c21 [Compound 155, 3-(8-((4-chlorophenyl)ethynyl)-2-imino-3-methyl-2,3-dihydro-1H-imidazo[4,5-c]quinolin-1-yl)-4-methylbenzonitrile]"
